Data published in US20110077294A1, “R-(-) / S-(+)-7-[3-N SUBSTITUTED AMINO-2 HYDROXYPROPOXY] FLAVONES” (priority 2006, published 2011).
Marks after values point to notes of the source that are not given here.

What was measured:
Format in all cases: in vivo
[1] = system: C57BL/KsBom-db/db mice; experiment: Oral glucose tolerance test (OGTT) on day 10 in db/db mice; conditions: for Blood glucose profile, 0 min post glucose load / Blood glucose % change compared to control, 0 min post glucose load: OGTT day 10, 0 min; for Blood glucose profile, 30 min post glucose load / Blood glucose % change compared to control, 30 min post glucose load: OGTT day 10, 30 min; for Blood glucose profile, 60 min post glucose load / Blood glucose % change compared to control, 60 min post glucose load: OGTT day 10, 60 min; for Blood glucose profile, 90 min post glucose load / Blood glucose % change compared to control, 90 min post glucose load: OGTT day 10, 90 min; for Blood glucose profile, 120 min post glucose load / Blood glucose % change compared to control, 120 min post glucose load: OGTT day 10, 120 min; for Blood glucose profile, −30 min post glucose load / Blood glucose % change compared to control, −30 min post glucose load: OGTT day 10, −30 min; for Comparative antihyperglycemic activity: Day 10 (OGTT): in % (unit assumed)
Description: (§1) C57BL/KsBom-db/db mice (12-18 weeks old), weighing around 35+g bred in the animal house of CDRI, Lucknow, were used in the present experiments. The mice were housed in groups of 3 to 5 (same sex) in a room controlled for temperature (23±2.0 ° C.) and 12/12 hours light/dark cycle (lights on at 6.00 am). Body weight of each animal was measured daily from day 1 to day 10 of the experiment. All animals had free access to fresh water and normal pellet diet except on the day of the postprandial protocol (day 6) and during the overnight fast before the OGTT on day 10. The animals always had access to water during experimental periods. Blood glucose was checked every morning up till day 10. On day 10 an oral glucose tolerance test (OGTT) was performed after an overnight fasting. Blood glucose was measured at −30.0 min and test compounds were administered. The blood glucose was again measured at 0 min just post treatment and at this juncture glucose solution was given at a dose of 3 gm/kg to all the groups including the vehicle treated group. The blood glucose levels were checked at 30 min, 60 min, 90 min and 120 min post glucose administration. The data was analyzed for its significance on Prism software.

[2] = system: C57BL/KsBom-db/db mice; experiment: Serum lipid profile of treated db/db mice (antidyslipidemic activity)
[3] = system: C57BL/KsBom-db/db mice; experiment: as above; conditions: 25 mg/kg
Description: as §1

[4] = system: C57BL/KsBom-db/db mice; experiment: Blood glucose profile of db/db mice during daily treatment (antihyperglycemic activity); conditions: for Blood glucose % change compared to control, day 1: day 1, vs sham; for Blood glucose % change compared to control, day 2: day 2, vs sham; for Blood glucose % change compared to control, day 3: day 3, vs sham; for Blood glucose % change compared to control, day 4: day 4, vs sham; for Blood glucose % change compared to control, day 5: day 5, vs sham; for Blood glucose % change compared to control, day 6: day 6, vs sham; for Blood glucose % change compared to control, day 7: day 7, vs sham; for Blood glucose % change compared to control, day 8: day 8, vs sham; for Blood glucose % change compared to control, day 9: day 9, vs sham; for Comparative antihyperglycemic activity: Average Fall: day given in brackets, in %
Description: as §1

[5] = db/db mice, 10 mg/kg, statistically insignificant
[6] = db/db mice, test dose 10 mg/kg, in %
[7] = db/db mice, test dose 25 mg/kg, in %

Structure (SMILES): CC(C)(C)NC[C@H](O)COc1ccc2c(=O)cc(-c3cc(OCc4ccccc4)cc(OCc4ccccc4)c3)oc2c1 [S-002-853 (S), (S)-(+)-7-(3-tert-Butylamino-2-hydroxypropoxy)-3′,5′-dibenzyloxyflavone]
- Blood glucose profile, 0 min post glucose load ([1]; 10 mg/kg): 9.23 ± 3.10 mM
- Blood glucose % change compared to control, 0 min post glucose load ([1]; 10 mg/kg, vs sham): −25.7%
- Blood glucose profile, 30 min post glucose load ([1]; 10 mg/kg): 19.3 ± 5.52 mM
- Blood glucose % change compared to control, 30 min post glucose load ([1]; 10 mg/kg, vs sham): −32.8%
- Blood glucose profile, 60 min post glucose load ([1]; 10 mg/kg): 18.4 ± 5.39 mM
- Blood glucose % change compared to control, 60 min post glucose load ([1]; 10 mg/kg, vs sham): −27.2%
- Blood glucose profile, 90 min post glucose load ([1]; 10 mg/kg): 12.1 ± 3.81 mM
- Blood glucose % change compared to control, 90 min post glucose load ([1]; 10 mg/kg, vs sham): −26.9%
- Blood glucose profile, 120 min post glucose load ([1]; 10 mg/kg): 9.23 ± 3.10 mM
- Blood glucose % change compared to control, 120 min post glucose load ([1]; 10 mg/kg, vs sham): −11.7%
- Blood glucose profile, −30 min post glucose load ([1]; 10 mg/kg): 8.37 ± 2.98 mM
- Blood glucose % change compared to control, −30 min post glucose load ([1]; 10 mg/kg, vs sham): −23.9%
- effect of 10 days treatment on glucose tolerance ([1]; 10 mg/kg, not statistically significant): around 27.6%
- Blood glucose profile, 0 min post glucose load ([1]; 25 mg/kg): 4.81 ± 0.35 mM
- Blood glucose % change compared to control, 0 min post glucose load ([1]; 25 mg/kg, vs sham): −41.8%
- Blood glucose profile, 30 min post glucose load ([1]; 25 mg/kg): 17.8 ± 1.24 mM
- Blood glucose % change compared to control, 30 min post glucose load ([1]; 25 mg/kg, vs sham): −38.6%
- Blood glucose profile, 60 min post glucose load ([1]; 25 mg/kg): 16.3 ± 1.82 mM
- Blood glucose % change compared to control, 60 min post glucose load ([1]; 25 mg/kg, vs sham): −48.3%
- Blood glucose profile, 90 min post glucose load ([1]; 25 mg/kg): 13.0 ± 1.66 mM
- Blood glucose % change compared to control, 90 min post glucose load ([1]; 25 mg/kg, vs sham): −45.5%
- Blood glucose profile, 120 min post glucose load ([1]; 25 mg/kg): 8.83 ± 0.72 mM
- Blood glucose % change compared to control, 120 min post glucose load ([1]; 25 mg/kg, vs sham): −58.2%
- Blood glucose profile, −30 min post glucose load ([1]; 25 mg/kg): 4.57 ± 0.30 mM
- Blood glucose % change compared to control, −30 min post glucose load ([1]; 25 mg/kg, vs sham): −43.5%
- effect of 10 days treatment on glucose tolerance (overall improvement in OGTT) ([1]; 25 mg/kg, vs sham): around 45.3%
- Comparative antihyperglycemic activity: Day 10 (OGTT) ([1]; test dose 10 mg/kg): 27.6*
- Comparative antihyperglycemic activity: Day 10 (OGTT) ([1]; test dose 25 mg/kg): 45.3**
- enhancement of HDL-C as compared to the racemic compound ([2]; 25 mg/kg body weight): more than two folds
- Serum lipid profile: Cholesterol ([2]; db/db mice, 10 mg/kg): 87.5 ± 3.00 mg/dL
- Serum lipid profile: HDL-Chol ([2]; db/db mice, 10 mg/kg): 66.4 ± 2.87 mg/dL
- Serum lipid profile: Triglycerides ([2]; db/db mice, 10 mg/kg): 110 ± 4.08 mg/dL
- Cholesterol % change compared to control ([2]; db/db mice, 10 mg/kg, vs sham): −16.3%
- HDL-Chol % change compared to control ([2]; db/db mice, 10 mg/kg, vs sham): +17.4%
- Triglycerides % change compared to control ([2]; db/db mice, 10 mg/kg, vs sham): −17.9%
- elevation in HDL-cholesterol level than control [2, 5]: +17.4%
- lowering of serum cholesterol [2, 5]: around 16.3%
- lowering of serum triglycerides [2, 5]: ~17.9%
- decrease in LDL-cholesterol level ([2]; db/db mice, 25 mg/kg): around 29.4%
- elevation in HDL-cholesterol level than control ([2]; db/db mice, 25 mg/kg): 33.2%
- lowering of serum cholesterol ([2]; db/db mice, 25 mg/kg): around 21.8%
- lowering of serum triglycerides ([2]; db/db mice, 25 mg/kg): ~14.5%
- Comparative antihyperlipidemic activity: HDL-C ([2]; db/db mice, test dose 10 mg/kg): +17.4^ns
- Comparative antihyperlipidemic activity: T-Chol [2, 6]: 16.3*
- Comparative antihyperlipidemic activity: TG [2, 6]: 17.9*
- Comparative antihyperlipidemic activity: HDL-C [2, 7]: +33.2*
- Comparative antihyperlipidemic activity: T-Chol [2, 7]: 27.8*
- Comparative antihyperlipidemic activity: TG [2, 7]: 14.5**
- Serum lipid profile: Cholesterol [3]: 185 ± 51.4 mg/dL
- Serum lipid profile: HDL-Chol [3]: 49.5 ± 8.36 mg/dL
- Serum lipid profile: Triglycerides [3]: 115 ± 2.82 mg/dL
- Cholesterol % change compared to control ([3]; vs sham): −21.8%
- HDL-Chol % change compared to control ([3]; vs sham): +33.2%
- Triglycerides % change compared to control ([3]; vs sham): −14.5%
- fall in blood glucose profile (in words) ([4]; 10 mg/kg): not statistically significant on any day post treatment
- Blood glucose, day 1 post treatment ([4]; 10 mg/kg): 19.8 ± 2.47 mM
- Blood glucose % change compared to control, day 1 ([4]; 10 mg/kg): −0.9%
- Blood glucose, day 2 post treatment ([4]; 10 mg/kg): 18.5 ± 2.34 mM
- Blood glucose % change compared to control, day 2 ([4]; 10 mg/kg): −9.60%
- Blood glucose, day 3 post treatment ([4]; 10 mg/kg): 17.9 ± 2.14 mM
- Blood glucose % change compared to control, day 3 ([4]; 10 mg/kg): −18.6%
- Blood glucose, day 4 post treatment ([4]; 10 mg/kg): 15.3 ± 2.96 mM
- Blood glucose % change compared to control, day 4 ([4]; 10 mg/kg): −26.8%
- Blood glucose, day 5 post treatment ([4]; 10 mg/kg): 13.8 ± 2.98 mM
- Blood glucose % change compared to control, day 5 ([4]; 10 mg/kg): −35.0%
- Blood glucose, day 6 post treatment ([4]; 10 mg/kg): 13.1 ± 3.41 mM
- Blood glucose % change compared to control, day 6 ([4]; 10 mg/kg): −40.7%
- Blood glucose, day 7 post treatment ([4]; 10 mg/kg): 11.8 ± 3.55 mM
- Blood glucose % change compared to control, day 7 ([4]; 10 mg/kg): −42.0%
- Blood glucose, day 8 post treatment ([4]; 10 mg/kg): 12.1 ± 3.39 mM
- Blood glucose % change compared to control, day 8 ([4]; 10 mg/kg): −42.2%
- Blood glucose, day 9 post treatment ([4]; 10 mg/kg): 14.2 ± 2.98 mM
- Blood glucose % change compared to control, day 9 ([4]; 10 mg/kg): −39.4%
- antihyperglycemic and antidyslipidemic/antihyperlipidemic activity (in words) ([4]; 25 mg/kg): significant antihyperglycemic and antidyslipidemic activity
- Blood glucose, day 1 post treatment ([4]; 25 mg/kg): 22.4 ± 1.24 mM
- Blood glucose % change compared to control, day 1 ([4]; 25 mg/kg): +0.20%
- Blood glucose, day 2 post treatment ([4]; 25 mg/kg): 16.6 ± 3.85 mM
- Blood glucose % change compared to control, day 2 ([4]; 25 mg/kg): −33.6%
- Blood glucose, day 3 post treatment ([4]; 25 mg/kg): 12.9 ± 3.00 mM
- Blood glucose % change compared to control, day 3 ([4]; 25 mg/kg): −39.5%
- Blood glucose, day 4 post treatment ([4]; 25 mg/kg): 10.6 ± 2.89 mM
- Blood glucose % change compared to control, day 4 ([4]; 25 mg/kg): −54.9%
- Blood glucose, day 5 post treatment ([4]; 25 mg/kg): 8.80 ± 3.84 mM
- Blood glucose % change compared to control, day 5 ([4]; 25 mg/kg): −55.6%
- Blood glucose, day 6 post treatment ([4]; 25 mg/kg): 7.60 ± 3.46 mM
- Blood glucose % change compared to control, day 6 ([4]; 25 mg/kg): −61.1%
- maximum percentage fall in blood glucose ([4]; 25 mg/kg, day 6 of treatment): around 61.1%
- Blood glucose, day 7 post treatment ([4]; 25 mg/kg): 10.6 ± 2.20 mM
- Blood glucose % change compared to control, day 7 ([4]; 25 mg/kg): −52.2%
- Blood glucose, day 8 post treatment ([4]; 25 mg/kg): 8.30 ± 1.13 mM
- Blood glucose % change compared to control, day 8 ([4]; 25 mg/kg): −60.0%
- Blood glucose, day 9 post treatment ([4]; 25 mg/kg): 7.90 ± 1.30 mM
- Blood glucose % change compared to control, day 9 ([4]; 25 mg/kg): −58.5%
- antihyperglycemic and antidyslipidemic/antihyperlipidemic activity (in words) ([4]; 25 mg/kg, listed as S-isomer): marked antihyperglycemic and antihyperlipidemic effect compared to racemic mixture
- Comparative antihyperglycemic activity: Average Fall ([4]; test dose 10 mg/kg): 42.2*
- Comparative antihyperglycemic activity: Average Fall ([4]; test dose 25 mg/kg): 61.1**
